A value given as a limit tells only on which side of the number the result lay.

Test [1] addresses T1, Glucocorticoid receptor (Rattus norvegicus, UniProt P06536).
T1 sequence (P06536 whole entry): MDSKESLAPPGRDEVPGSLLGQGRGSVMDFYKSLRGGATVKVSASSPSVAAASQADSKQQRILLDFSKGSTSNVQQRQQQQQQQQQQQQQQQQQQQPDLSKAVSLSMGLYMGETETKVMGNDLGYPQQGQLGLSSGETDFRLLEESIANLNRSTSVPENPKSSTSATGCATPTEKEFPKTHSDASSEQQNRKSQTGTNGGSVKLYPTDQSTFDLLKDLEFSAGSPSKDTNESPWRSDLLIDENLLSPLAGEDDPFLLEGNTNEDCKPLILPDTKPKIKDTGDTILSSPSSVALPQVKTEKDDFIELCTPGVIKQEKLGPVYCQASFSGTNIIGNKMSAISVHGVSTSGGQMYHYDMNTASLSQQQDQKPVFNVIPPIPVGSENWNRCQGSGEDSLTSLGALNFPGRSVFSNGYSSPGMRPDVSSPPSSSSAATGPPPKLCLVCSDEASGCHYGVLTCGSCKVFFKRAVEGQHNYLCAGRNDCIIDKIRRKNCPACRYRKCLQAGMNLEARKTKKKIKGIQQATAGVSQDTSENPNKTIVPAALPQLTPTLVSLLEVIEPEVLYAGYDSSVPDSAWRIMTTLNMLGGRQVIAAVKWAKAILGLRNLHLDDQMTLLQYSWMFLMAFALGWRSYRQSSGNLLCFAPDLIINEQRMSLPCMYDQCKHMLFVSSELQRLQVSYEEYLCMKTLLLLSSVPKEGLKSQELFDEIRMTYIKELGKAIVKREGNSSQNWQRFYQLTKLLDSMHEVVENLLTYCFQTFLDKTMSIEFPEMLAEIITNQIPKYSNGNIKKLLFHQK
In words: Competitive displacement of [3H]dexamethasone from glucocorticoid receptor of rat liver cytosol.

The species named for test [2] is Mus musculus. In words: Anti-inflammatory activity in mouse croton oil ear assay relative to clobetasol propionate. Format: functional.
Test [3] can be described thus: It is the ratio of topical(edema inhibition) to systemic (thymolysis) activities. It is filed as functional.
For test [4], the species on record is Rattus norvegicus. In words: The thymolytic activity was measured relative to clobetasol propionate (CP=1) in rat granuloma pouch assay system. Format: functional.
For test [5], the species on record is Rattus norvegicus. Nature of the test: The thymolytic activity was measured relative to clobetasol propionate (CP=1) in rat granuloma pouch assay system; granuloma inhibition or thymolytic activity was not detected up to 100 ug/pouch. Format: functional.

For `CC(C)OC(=O)CCC(=O)O[C@]1(C(=O)CCl)[C@@H](C)CC2C3CCC4=CC(=O)C=CC4(C)[C@@]3(F)[C@@H](O)CC21C` (stereo not given in full), the concentration for half-maximal inhibition (IC50) in test [1] worked out at 12.1 nM. Also, the Fold_activity in test [2] came to 0.11.
Take `CSCC(=O)O[C@]1(C(=O)CCl)[C@@H](C)CC2C3CCC4=CC(=O)C=CC4(C)[C@@]3(F)[C@@H](O)CC21C` (stereo not given in full): the Ratio in test [3] was 1. The Fold_activity in test [2] was 0.35. In test [4], this molecule had a Thymolysis of 0.35.
In the case of `CCC(=O)O[C@]1(C(=O)CCl)[C@@H](C)C[C@H]2[C@@H]3CCC4=CC(=O)C=C[C@]4(C)[C@@]3(F)[C@@H](O)C[C@@]21C` [CLOBETASOL PROPIONATE], in test [3], the Ratio came out at 1. Moreover, the half-maximal inhibitory concentration (IC50) in test [1] was found to be 3.17 nM. Further, the Fold_activity in test [2] turned out to be 1. This molecule also came in with a Thymolysis in test [4] of 1.
Take `COCC(=O)O[C@]1(C(=O)CCl)[C@@H](C)CC2C3CCC4=CC(=O)C=CC4(C)[C@@]3(F)[C@@H](O)CC21C` (stereo not given in full): in test [2], the Fold_activity is recorded as 0.11.
Regarding `COCCC(=O)O[C@]1(C(=O)CCl)[C@@H](C)CC2C3CCC4=CC(=O)C=CC4(C)[C@@]3(F)[C@@H](O)CC21C` (stereo not given in full), the Ratio in test [3] stood at 7.6. The Fold_activity in test [2] is 0.38. The molecule further had a Thymolysis in test [4] of 0.05.
Take `CCC(=O)OCC(=O)[C@@]1(OC(=O)CC)[C@@H](C)C[C@H]2[C@@H]3CCC4=CC(=O)C=C[C@]4(C)[C@@]3(F)[C@@H](O)C[C@@]21C` [BETAMETHASONE DIPROPIONATE]: the Thymolysis in test [4] stood at 0.03.
On to `C[C@H]1CC2C3CCC4=CC(=O)C=CC4(C)[C@@]3(F)[C@@H](O)CC2(C)[C@@]1(OC(=O)CCC(=O)O)C(=O)CCl` (stereo not given in full), for which the concentration for half-maximal inhibition (IC50) in test [1] is above 150 nM. In addition, the Fold_activity in test [2] is below 0.01.
`CCOC(=O)CCCC(=O)O[C@]1(C(=O)CCl)[C@@H](C)CC2C3CCC4=CC(=O)C=CC4(C)[C@@]3(F)[C@@H](O)CC21C` (stereo not given in full): in test [1], the IC50 is 9.68 nM. Also, the Fold_activity in test [2] amounted to 0.68.
The molecule `C[C@H]1CC2C3CCC4=CC(=O)C=CC4(C)[C@@]3(F)[C@@H](O)CC2(C)[C@@]1(OC(=O)CCC#N)C(=O)CCl` (stereo not given in full) displayed a Fold_activity in test [2] of 0.07.
With `CC(=O)OCCC(=O)O[C@]1(C(=O)CCl)[C@@H](C)CC2C3CCC4=CC(=O)C=CC4(C)[C@@]3(F)[C@@H](O)CC21C` (stereo not given in full), the Ratio in test [3] amounted to 18.6. The Fold_activity in test [2] is listed as 0.28. The Thymolysis in test [4] was 0.015.
Regarding `C[C@H]1CC2C3CCC4=CC(=O)C=CC4(C)[C@@]3(F)[C@@H](O)CC2(C)[C@@]1(OC(=O)CCl)C(=O)CCl` (stereo not given in full), the Fold_activity in test [2] came to 0.25.
`C[C@H]1CC2C3CCC4=CC(=O)C=CC4(C)[C@@]3(F)[C@@H](O)CC2(C)[C@@]1(OC(=O)CC1CC1)C(=O)CCl` (stereo not given in full): in test [3], the Ratio was found to be 0.46. Besides, in test [2], the Fold_activity is 0.51. Moreover, in test [4], the Thymolysis turned out to be 1.1.
As to `C[C@H]1CC2C3CCC4=CC(=O)C=CC4(C)[C@@]3(F)[C@@H](O)CC2(C)[C@@]1(OC(=O)CCC(=O)OC(C)(C)C)C(=O)CCl` (stereo not given in full), the IC50 in test [1] turned out to be 10.8 nM. The Fold_activity in test [2] is given as 0.19.
`COC(=O)CCC(=O)O[C@]1(C(=O)CCl)[C@@H](C)CC2C3CCC4=CC(=O)C=CC4(C)[C@@]3(F)[C@@H](O)CC21C` (stereo not given in full): the Ratio in test [3] is above 130. Besides, in test [1], the IC50 was found to be 5.18 nM. Moreover, the Thymolysis in test [5] was below 0.01. The Fold_activity in test [2] came to 1.3.
For `C[C@H]1CC2C3CCC4=CC(=O)C=CC4(C)[C@@]3(F)[C@@H](O)CC2(C)[C@@]1(OC(=O)C1CC1)C(=O)CCl` (stereo not given in full), the Ratio in test [3] is 0.34. The Fold_activity in test [2] was 0.44. The molecule further came in with a Thymolysis in test [4] of 1.3.
For the molecule `CCOC(=O)CCC(=O)O[C@]1(C(=O)CCl)[C@@H](C)CC2C3CCC4=CC(=O)C=CC4(C)[C@@]3(F)[C@@H](O)CC21C` (stereo not given in full), the Fold_activity in test [2] was 0.56.
For `C[C@H]1CC2C3CCC4=CC(=O)C=CC4(C)[C@@]3(F)[C@@H](O)CC2(C)[C@@]1(OC(=O)CCCCl)C(=O)CCl` (stereo not given in full), in test [3], the Ratio amounted to 5.5. In test [2], the Fold_activity was 0.66. This molecule also returned a Thymolysis in test [4] of 0.12.
Regarding `COC(=O)CCCC(=O)O[C@]1(C(=O)CCl)[C@@H](C)CC2C3CCC4=CC(=O)C=CC4(C)[C@@]3(F)[C@@H](O)CC21C` (stereo not given in full), in test [2], the Fold_activity was determined as 0.45.

For the origin of these results see ChEMBL document CHEMBL1125859, “Synthesis and evaluation of antiinflammatory activities of a series of corticosteroid 17 alpha-esters containing a functional group” (J Med Chem, 1991).
